15 molecules from patent publication US20240246940A1, “HETEROARYL DERIVATIVE COMPOUND AND USE THEREOF” (VORONOI INC., priority 2021, published 2024) can be followed below.

Usually GI50 stands for the concentration giving 50% growth inhibition. Broadly, the IC50 is the midpoint of a concentration-inhibition curve. A lower IC50 goes with inhibition by little substance.

Assay [1] deals with Ba/F3 cells expressing HER2 T798I. The assay is described as follows: Transduced Ba/F3 cell proliferation inhibitory activity, HER2 T798I. The note with it: Mus musculus, BaF3, 72 hours. The class given is cell-based. The procedure: (§1) For Ba/F3 cells, RPMI-1640 supplemented with 10% FBS and 5 ng/ml IL-3 (R&D Systems) was used. Transduced Ba/F3 cells were cultured by adding 1 μg/ml puromycin (Invitrogen) to the same medium.
(§2) 3000 to 5000 cells were aliquoted into each well of a white clear bottom 96 well plate (Corning) 24 hours before treatment with the compounds of Examples. The compounds of Examples were diluted in dimethyl sulfoxide (three-fold dilution, a total of 12 concentrations) and injected each in an amount of 1 μl to a final concentration of 0.2 nM to 5 μM. For the measurement of living cells, the cells were stored at room temperature for 10 minutes using CellTiter-Glo luminescent cell-viability reagent (Promega) in 72 hours after treatment with the compounds of Examples, and the luminescence intensity thereof was measured using a reader (SynergyNeo, Biotek). Each test was repeated three times. The result values were calculated as a cell growth rate (%) compared to those of the control group. A graph was created using the GraphPad Prism version 8.3.0 program, and GI50 values were calculated.

For assay [2], the system named is Ba/F3 cells expressing HER2 L869R. The assay is described as follows: Transduced Ba/F3 cell proliferation inhibitory activity, HER2 L869R. Type of assay: cell-based. The note with it: Mus musculus, BaF3, 72 hours. The procedure:
as §1, §2

For assay [3], the system named is SK-BR-3 cells (HER2 overexpressing cell line). The assay is described as follows: SK-BR-3 cell proliferation inhibitory activity (CellTiter-Glo, 120 hours). The class given is cell-based. To be noted: Homo sapiens. In short, it runs like this: (§3)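 SK-BR-3 and BT-474 cells were plated at 5000/well 48 h ahead, and N-87 (5000) and HaCaT (3000) 24 h ahead. Compounds were tested at 11 DMSO-diluted concentrations: 0.2 nM–10 μM for SK-BR-3/BT-474, […]–5 μM for N-87 and 0.8 nM–45 μM for HaCaT. GI50 came from growth % versus control, in triplicate.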

In the next assay the target is T1, HER2 (Homo sapiens, UniProt P04626).
T1 construct: purchased Reaction Biology Corp
T1 sequence (P04626 23-1255): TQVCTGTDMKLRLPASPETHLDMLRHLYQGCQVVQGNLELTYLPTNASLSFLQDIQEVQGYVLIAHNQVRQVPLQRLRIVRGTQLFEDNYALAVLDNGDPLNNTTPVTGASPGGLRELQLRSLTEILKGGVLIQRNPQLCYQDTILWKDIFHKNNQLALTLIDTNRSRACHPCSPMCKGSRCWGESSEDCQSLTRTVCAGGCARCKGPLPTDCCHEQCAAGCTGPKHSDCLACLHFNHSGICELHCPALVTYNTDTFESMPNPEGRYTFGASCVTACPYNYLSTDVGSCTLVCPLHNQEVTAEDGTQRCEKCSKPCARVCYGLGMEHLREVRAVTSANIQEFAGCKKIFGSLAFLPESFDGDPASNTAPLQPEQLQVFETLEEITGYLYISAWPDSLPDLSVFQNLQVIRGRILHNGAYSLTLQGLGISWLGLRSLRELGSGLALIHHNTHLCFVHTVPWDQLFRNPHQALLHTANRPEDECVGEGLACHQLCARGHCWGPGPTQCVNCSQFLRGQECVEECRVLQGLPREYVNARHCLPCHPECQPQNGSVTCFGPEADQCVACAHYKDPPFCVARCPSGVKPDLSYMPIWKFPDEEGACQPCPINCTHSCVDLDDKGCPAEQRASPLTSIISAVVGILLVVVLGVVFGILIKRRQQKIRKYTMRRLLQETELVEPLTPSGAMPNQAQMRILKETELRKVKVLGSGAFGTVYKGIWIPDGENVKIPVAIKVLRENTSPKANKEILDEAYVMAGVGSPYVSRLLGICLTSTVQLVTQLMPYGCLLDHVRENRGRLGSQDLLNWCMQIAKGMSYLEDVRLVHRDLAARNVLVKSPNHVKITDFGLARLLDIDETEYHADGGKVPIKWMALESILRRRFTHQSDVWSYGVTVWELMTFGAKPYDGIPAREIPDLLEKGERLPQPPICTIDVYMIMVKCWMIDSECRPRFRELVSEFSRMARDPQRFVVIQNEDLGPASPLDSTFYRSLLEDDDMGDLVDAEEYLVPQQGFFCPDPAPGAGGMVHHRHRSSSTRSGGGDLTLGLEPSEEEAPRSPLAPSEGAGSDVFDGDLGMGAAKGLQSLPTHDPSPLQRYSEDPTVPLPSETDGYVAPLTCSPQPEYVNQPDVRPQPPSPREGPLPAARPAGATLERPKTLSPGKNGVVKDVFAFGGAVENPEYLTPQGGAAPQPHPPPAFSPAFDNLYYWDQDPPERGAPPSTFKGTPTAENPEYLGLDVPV
Nature of the assay: Biochemical kinase assay for HER2 (Reaction Biology Corp), ATP 10 μM, 10-dose IC50. The procedure:
(§4) Biochemical kinase assays for HER2 and EGFR were performed by Reaction Biology Corp (San Diego, USA).

Assay [4] deals with HaCaT cells (EGFR expressing cell line). The assay is described as follows: HaCaT cell proliferation inhibitory activity (CellTiter-Glo, 72 hours). The class given is cell-based. The note with it: Homo sapiens. In short, it runs like this:
as §3

The test system of assay [5] is BT-474 cells (HER2 overexpressing cell line). Nature of the assay: BT-474 cell proliferation inhibitory activity (CellTiter-Glo, 120 hours). Type of assay: cell-based. The note with it: Homo sapiens. In short, it runs like this: as §3
(ATP-based viability assays read luminescence as a measure of living cells.)

The subject of assay [6] is Ba/F3 cells expressing HER2 T862A. Nature of the assay: Transduced Ba/F3 cell proliferation inhibitory activity, HER2 T862A. The class given is cell-based. To be noted: Mus musculus, BaF3, 72 hours. The procedure:
as §1, §2

Assay [7] concerns Ba/F3 cells expressing HER2 L756S. The assay is described as follows: Transduced Ba/F3 cell proliferation inhibitory activity, HER2 L756S. Type of assay: cell-based. To be noted: Mus musculus, BaF3; Ba/F3 HER2 L755S, 72 hours. The procedure:
as §1, §2

In assay [8] the test system is N-87 cells (HER2 overexpressing cell line). Nature of the assay: N-87 cell proliferation inhibitory activity (CellTiter-Glo, 72 hours). The class given is cell-based. In short, it runs like this: as §3
Another assay deals with T2, EGFR (Homo sapiens, UniProt P00533).
T2 construct: purchased Reaction Biology Corp
T2 sequence (P00533 25-1210): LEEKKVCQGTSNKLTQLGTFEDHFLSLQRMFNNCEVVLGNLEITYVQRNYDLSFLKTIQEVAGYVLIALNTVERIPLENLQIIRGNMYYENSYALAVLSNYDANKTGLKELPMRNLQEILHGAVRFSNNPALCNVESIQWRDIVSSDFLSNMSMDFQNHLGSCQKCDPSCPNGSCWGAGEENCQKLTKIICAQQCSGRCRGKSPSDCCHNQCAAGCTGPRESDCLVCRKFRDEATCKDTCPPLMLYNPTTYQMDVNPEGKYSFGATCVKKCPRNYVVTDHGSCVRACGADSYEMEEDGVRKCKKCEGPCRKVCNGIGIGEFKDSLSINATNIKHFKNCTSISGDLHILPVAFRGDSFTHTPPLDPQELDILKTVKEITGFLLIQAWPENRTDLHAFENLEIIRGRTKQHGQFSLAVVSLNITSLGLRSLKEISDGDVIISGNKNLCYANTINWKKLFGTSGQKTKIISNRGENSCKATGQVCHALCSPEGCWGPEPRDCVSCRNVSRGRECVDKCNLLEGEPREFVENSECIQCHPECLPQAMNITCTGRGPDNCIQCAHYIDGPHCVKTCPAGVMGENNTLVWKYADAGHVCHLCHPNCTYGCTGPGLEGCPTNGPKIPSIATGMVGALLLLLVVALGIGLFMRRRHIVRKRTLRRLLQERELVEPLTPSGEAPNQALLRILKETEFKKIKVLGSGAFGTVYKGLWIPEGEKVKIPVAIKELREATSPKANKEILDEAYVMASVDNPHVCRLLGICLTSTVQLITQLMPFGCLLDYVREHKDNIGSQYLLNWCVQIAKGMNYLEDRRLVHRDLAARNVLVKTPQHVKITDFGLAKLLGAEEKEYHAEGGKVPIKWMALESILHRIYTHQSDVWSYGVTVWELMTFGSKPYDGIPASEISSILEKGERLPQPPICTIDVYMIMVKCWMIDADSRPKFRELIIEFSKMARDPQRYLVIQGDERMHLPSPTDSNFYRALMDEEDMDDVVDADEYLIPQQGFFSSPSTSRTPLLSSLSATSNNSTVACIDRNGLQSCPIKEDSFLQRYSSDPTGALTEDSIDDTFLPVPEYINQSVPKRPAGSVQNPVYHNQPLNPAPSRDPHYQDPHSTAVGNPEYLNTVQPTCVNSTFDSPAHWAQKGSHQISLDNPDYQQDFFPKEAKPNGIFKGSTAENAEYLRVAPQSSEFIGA
Nature of the assay: Biochemical kinase assay for EGFR (Reaction Biology Corp), ATP 10 μM, 10-dose IC50. On the procedure: as §4

With `C=CC(=O)N1CCC(Oc2cc3c(Nc4cc(-c5cccs5)ccc4OC)ncnc3cc2OC)CC1` [Example 78, 1-(4-((7-methoxy-4-((2-methoxy-5-(thiophen-2-yl)phenyl)amino)quinazolin-6-yl)oxy)piperidin-1-yl)prop-2-en-1-one], the GI50 is ≤ 50 nM in assay [1], ≤ 50 nM in assay [2] and ≤ 150 nM in assay [3].
As for `C=CC(=O)N1CCC(Oc2cc3c(Nc4cc(-c5cc(C)co5)ccc4OC)ncnc3cc2OC)CC1` [Example 90, 1-(4-((7-methoxy-4-((2-methoxy-5-(4-methylfuran-2-yl)phenyl)amino)quinazolin-6-yl)oxy)piperidin-1-yl)prop-2-en-1-one], the concentration for half-maximal inhibition (IC50) at HER2 is ≤ 50 nM.
With `C=CC(=O)N1CCC(Oc2cc3c(Nc4cc(-c5ccco5)ccc4OC)ncnc3cc2OC)C(F)C1` (stereo not drawn) [Example 112, 1-(3-fluoro-4-((4-((5-(furan-2-yl)-2-methoxyphenyl)amino)-7-methoxy-quinazolin-6-yl)oxy)piperidin-1-yl)prop-2-en-1-one], the 50% growth inhibitory concentration (GI50) in assay [4] is ≤ 150 nM; in assay [2] it was ≤ 50 nM; in assay [5] it was ≤ 150 nM; in [6] it was ≤ 50 nM; in assay [7] it was ≤ 50 nM; in assay [8], ≤ 150 nM. Also, in assay [3], the GI50 was ≤ 150 nM.
Turning to `C=CC(=O)N1CCC(Oc2cc3c(Nc4cc(-c5ccc(F)cc5F)ccc4OC)ncnc3cc2OC)C(F)C1` (stereo not drawn) [Example 143, 1-(4-((4-((2′,4′-difluoro-4-methoxy-[1,1′-biphenyl]-3-yl)amino)-7-methoxy-quinazolin-6-yl)oxy)-3-fluoropiperidin-1-yl)prop-2-en-1-one], the GI50 in assay [4] was ≤ 150 nM; in assay [2], ≤ 50 nM; in assay [5], ≤ 150 nM; in assay [6], ≤ 50 nM; in assay [7], ≤ 50 nM; in assay [8], ≤ 150 nM. Moreover, the concentration for 50% growth inhibition (GI50) in [3] is ≤ 150 nM.
On to `C=CC(=O)N1CCC(Oc2cc3c(Nc4cc(-c5cccc(N(C)C)c5)ccc4OC)ncnc3cc2OC)CC1` [Example 151, 1-(4-((4-((3′-(dimethylamino)-4-methoxy-[1,1′-biphenyl]-3-yl)amino)-7-methoxy-quinazolin-6-yl)oxy)piperidin-1-yl)prop-2-en-1-one], for which the GI50 was 150 to 1000 nM in assay [4], ≤ 150 nM in assay [5], ≤ 150 nM in assay [8] and ≤ 150 nM in assay [3].
Take `C=CC(=O)N1CCC(Oc2cc3c(Nc4cc(-c5ccc(F)cc5F)c(F)cc4OC)ncnc3cc2OC)CC1` [Example 157, 1-(4-((7-methoxy-4-((2′,4′,6-trifluoro-4-methoxy-[1,1′-biphenyl]-3-yl)amino)quinazolin-6-yl)oxy)piperidin-1-yl)prop-2-en-1-one]: the GI50 in [4], in assay [5] and in [8] was ≤ 150 nM throughout. Besides, the IC50 on HER2 is ≤ 50 nM.
`C=CC(=O)N1CCC(Oc2cc3c(Nc4cc(-c5cc(N)c(F)cc5C)ccc4OC)ncnc3cc2OC)CC1` [Example 161, 1-(4-((4-((5′-amino-4′-fluoro-4-methoxy-2′-methyl-[1,1′-biphenyl]-3-yl)amino)-7-methoxy-quinazolin-6-yl)oxy)piperidin-1-yl)prop-2-en-1-one]: the GI50 in assay [4], in [5], in assay [8] and in [3] was ≤ 150 nM throughout.
Consider `C=CC(=O)N1CCC(Oc2cc3c(Nc4cc(-c5cccc(N)c5F)ccc4OC)ncnc3cc2OC)CC1` [Example 163, 1-(4-((4-((3′-amino-2′-fluoro-4-methoxy-[1,1′-biphenyl]-3-yl)amino)-7-methoxy-quinazolin-6-yl)oxy)piperidin-1-yl)prop-2-en-1-one], for which the GI50 in [4] is 150 to 1000 nM; in assay [5], 150 to 1000 nM; in assay [8] it was ≤ 150 nM; in assay [3], ≤ 150 nM.
For `C=CC(=O)N1CCC(Oc2cc3c(Nc4cc(-c5ccc(F)cc5F)ccc4OC4CC4)ncnc3cc2OC)CC1` [Example 260, 1-(4-((4-((4-cyclopropoxy-2′,4′-difluoro-[1,1′-biphenyl]-3-yl)amino)-7-methoxyquinazolin-6-yl)oxy)piperidin-1-yl)prop-2-en-1-one], the GI50 in [4], in assay [5], in assay [8] and in assay [3] was ≤ 150 nM in each case.
As to `C=CC(=O)N1CCC(Nc2cc3c(Nc4cc(-c5ccco5)ccc4OC)ncnc3cc2OC2CCOC2)CC1` (stereo not drawn) [Example 270, 1-(4-((4-((5-(furan-2-yl)-2-methoxyphenyl)amino)-7-((tetrahydrofuran-3-yl)oxy)quinazolin-6-yl)amino)piperidin-1-yl)prop-2-en-1-one], the GI50 in assay [4], in [5], in [8] and in assay [3] was ≤ 150 nM each time.
`C=CC(=O)N1CCC(Nc2cc3c(Nc4cc(-c5ccco5)ccc4OC)ncnc3cc2OCCCN2CCOCC2)CC1` [Example 278, 1-(4-((4-((5-(furan-2-yl)-2-methoxyphenyl)amino)-7-(3-morpholinopropoxy)quinazolin-6-yl)amino)piperidin-1-yl)prop-2-en-1-one]: the 50% growth inhibitory concentration (GI50) in assay [4], in [5], in assay [8] and in [3] was ≤ 150 nM each time.
`C=CC(=O)N1CCC(Nc2cc3c(Nc4cc(-c5ccc(F)cc5F)ccc4OC)ncnc3cc2OC2CCOC2)CC1` (stereo not drawn) [Example 286, 1-(4-((4-((2′,4′-difluoro-4-methoxy-[1,1′-biphenyl]-3-yl)amino)-7-((tetrahydrofuran-3-yl)oxy)quinazolin-6-yl)amino)piperidin-1-yl)prop-2-en-1-one]: the concentration for 50% growth inhibition (GI50) in [4], in assay [5], in [8] and in [3] was ≤ 150 nM each time.
In the case of `C=CC(=O)N1CCC(Nc2cc3c(Nc4cc(-c5ccco5)ccc4OC)ncnc3cc2OC)CC1` [Example 298, 1-(4-((4-((5-(furan-2-yl)-2-methoxyphenyl)amino)-7-methoxyquinazolin-6-yl)amino)piperidin-1-yl)prop-2-en-1-one], the 50% growth inhibitory concentration (GI50) in assay [4], in assay [5], in assay [8] and in [3] was ≤ 150 nM in each case.
Turning to `C=CC(=O)N1CCC(Nc2cc3c(Nc4cc(-c5ccc(F)cc5F)ccc4OC)ncnc3cc2OC)CC1` [Example 299, 1-(4-((4-((2′,4′-difluoro-4-methoxy-[1,1′-biphenyl]-3-yl)amino)-7-methoxyquinazolin-6-yl)amino)piperidin-1-yl)prop-2-en-1-one], the GI50 in assay [4], in assay [5], in assay [8] and in [3] was ≤ 150 nM each time.
Consider `COc1cc2ncnc(Nc3cc(-c4ccc(F)cc4F)ccc3OC)c2cc1NC(=O)/C(F)=C\[C@H]1CCCN1C` [Example 304, (R,E)-N-(4-((2′,4′-difluoro-4-methoxy-[1,1′-biphenyl]-3-yl)amino)-7-methoxyquinazolin-6-yl)-2-fluoro-3-(1-methylpyrrolidin-2-yl)acrylamide], for which the concentration for 50% growth inhibition (GI50) in assay [4], in assay [5] and in [8] was ≤ 150 nM each time. Moreover, the IC50 against EGFR and against HER2 was ≤ 50 nM throughout.
